# Experimental data published in patent US20170105969A1, “CENICRIVIROC FOR THE TREATMENT OF HIV-2 INFECTION” (Tobira Therapeutics, Inc., priority 2014, published 2017).
# Assays:
# CCR5 = CCR5 (Homo sapiens, UniProt P51681); assay: CCR5 receptor occupancy / internalization in PBMCs by flow cytometry; type: cell-based
# Method: The capacity of each drug to inhibit CCR5 or CCR2 internalization was evaluated. Cell-surface expression of CCR5 and CCR2 was assessed by flow cytometry, and fluorescence values were converted into molecules of equivalent soluble fluorescence (MESF).
# CCR5-tropic HIV-1 BaL = assay: PM-1 cells infected with HIV-1 BaL, supernatant P24 and viral load after 4 hours; type: cell-based; details: CVC 20 nM or MVC 50 nM
# Method: Early (strong-stop) and late (full-length) reverse transcript levels were measured by qPCR. […] P24 and viral load levels were measured by ELISA and qRT-PCR after 4 hours.
# CCR3 = target: T1, CCR3 (Homo sapiens, UniProt P51677); assay: Ligand binding to CCR3
# T1 sequence (P51677 1-355): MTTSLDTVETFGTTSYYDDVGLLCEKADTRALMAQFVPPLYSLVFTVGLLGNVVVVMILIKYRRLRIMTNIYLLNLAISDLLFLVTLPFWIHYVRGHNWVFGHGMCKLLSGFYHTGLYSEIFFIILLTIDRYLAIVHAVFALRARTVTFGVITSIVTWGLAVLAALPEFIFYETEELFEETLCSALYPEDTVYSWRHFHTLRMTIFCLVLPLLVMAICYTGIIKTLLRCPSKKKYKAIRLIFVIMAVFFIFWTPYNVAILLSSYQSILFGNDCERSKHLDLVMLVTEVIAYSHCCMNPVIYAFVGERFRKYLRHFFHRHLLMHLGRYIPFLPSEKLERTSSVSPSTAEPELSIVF
# CCR1 = target: T2, CCR1 (Homo sapiens, UniProt P32246); assay: Ligand binding to CCR1
# T2 sequence (P32246 1-355): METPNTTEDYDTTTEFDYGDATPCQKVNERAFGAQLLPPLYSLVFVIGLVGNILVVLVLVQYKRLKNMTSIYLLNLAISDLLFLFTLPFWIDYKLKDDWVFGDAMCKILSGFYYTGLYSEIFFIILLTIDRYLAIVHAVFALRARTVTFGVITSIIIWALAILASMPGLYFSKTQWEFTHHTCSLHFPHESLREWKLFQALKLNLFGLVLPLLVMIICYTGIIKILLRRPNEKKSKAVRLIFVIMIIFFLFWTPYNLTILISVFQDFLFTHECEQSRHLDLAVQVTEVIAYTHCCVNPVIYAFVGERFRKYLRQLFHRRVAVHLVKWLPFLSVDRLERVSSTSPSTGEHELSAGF
# MCP-1 = assay: Study 201: inflammatory markers MCP-1, hs-CRP, IL-6; type: in vivo, human
# Text: Exploratory efficacy endpoints included changes in the inflammatory markers MCP-1, hs-CRP, and IL-6.
# (§1) Subjects were antiretroviral treatment experienced, CCR5 antagonist-naïve, with HIV-1 RNA levels of at least 5000 copies/mL and CD4+ cell counts of at least 250 cells/mm^3. Subjects with HIV-2, hepatitis B virus, or hepatitis C virus co-infection or dual/mixed-tropic HIV-1 were ineligible. Other than their HIV-1 infection, subjects were generally healthy.
# [1] = Study 201: safety and tolerability (adverse events); type: in vivo, human
# Method: as §1
# In this study, all dose groups received the original formulation (DP3_25), except the 100 mg dose group which received an alternative formulation (DP4_100). […] These subjects were excluded from the efficacy, PK, and PK/PD data, but included in the baseline and safety data. In this study, safety and tolerability were assessed by monitoring AEs, vital signs, ECGs, clinical laboratory values from blood and urine, and physical examinations. Data from all subjects on placebo were pooled for the analyses.
# HIV-2 clinical isolates = assay: HIV-2 phenotypic susceptibility, ANRS PBMC method; type: cell-based; details: for EC50: Human immunodeficiency virus 2, PBMC
# Method: All patients were infected with HIV-2 group A. Tropism was determined phenotypically using Ghost(3) cell lines expressing CD4 receptor and one HIV coreceptor, CCR5 or CXCR4. Both Ghost(3) cell lines carries a humanized green fluorescent protein (GFP) gene, under the control of a HIV-2 LTR. […] Ghost(3) cells were provided by the NIH AIDS Reagent program.
# Briefly, cell-free HIV-2 positive supernatant was serially diluted (1, 10^−1, and 10^−2) and incubated with PBMC for viral titration. Viruses were tested at a 100 TCID50 titration. Cells were pre-incubated with cenicriviroc or maraviroc at an appropriate concentration 1 hour before viral infection. Six serial dilutions of the antiretroviral drug were tested in quadruplicate. On day 4, viral replication was assessed by a specific viral load assay (Generic HIV-2 viral load, Biocentric, France).
# [2] = among subjects on CVC presenting with a AE (n=30)
# [3] = HIV-2 isolate 10-046, group A, R5
# [4] = HIV-2 isolate 10-051, group A, R5
# [5] = HIV-2 isolate 10-055, group A, X4
# [6] = HIV-2 isolate 10-056, group A, R5
# [7] = HIV-2 isolate 10-069, group A, Dual
# [8] = HIV-2 isolate 10-074, group A, R5
# CCR5, sequence (P51681 whole entry): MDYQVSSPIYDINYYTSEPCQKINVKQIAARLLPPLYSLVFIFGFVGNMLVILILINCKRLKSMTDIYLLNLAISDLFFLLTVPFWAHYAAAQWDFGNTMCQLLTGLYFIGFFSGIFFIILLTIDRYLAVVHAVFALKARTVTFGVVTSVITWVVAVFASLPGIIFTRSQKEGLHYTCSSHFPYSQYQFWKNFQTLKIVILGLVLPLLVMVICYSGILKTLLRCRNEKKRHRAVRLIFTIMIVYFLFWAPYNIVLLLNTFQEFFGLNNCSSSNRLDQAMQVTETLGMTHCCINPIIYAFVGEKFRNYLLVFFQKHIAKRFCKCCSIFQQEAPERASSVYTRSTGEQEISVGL
smiles,measurement,setting,value
"CCCCOCCOc1ccc(-c2ccc3c(c2)/C=C(/C(=O)Nc2ccc([S@@+]([O-])Cc4cncn4CCC)cc2)CCCN3CC(C)C)cc1 [CVC, (S)-8-[4-(2-Butoxyethoxy)phenyl]-1-isobutyl-N-(4-{[(1-propyl-1H-imidazol-5-yl)methyl]sulfinyl}phenyl)-1,2,3,4-tetrahydro-1-benzazocine-5-carboxamide]",effective concentration at which saturation of CCR5 was reached,CCR5; CD4+ T cells,3.1 nM
same,concentration achieving ≧90% receptor occupancy for CCR5,CCR5; CD4+ T-cells ex vivo in humans,3.1 nM
same,effective concentration at which saturation of CCR5 was reached,CCR5; CD8+ T cells,2.3 nM
same,concentration achieving ≧90% receptor occupancy for CCR5,CCR5; CD8+ T-cells ex vivo in humans,2.3 nM
same,prevention of RANTES-induced CCR5 internalization (in words),CCR5; PBMCs,at lower effective concentrations than MVC
same,cell-surface expression of CCR5 (in words),"CCR5; in the absence of RANTES, PBMCs",increased cell-surface expression of CCR5
same,supernatant P24,CCR5-tropic HIV-1 BaL; 0 hrs (baseline),506 ng/mL
same,viral load,CCR5-tropic HIV-1 BaL; 0 hrs,1.19×10^10 copies/ml
same,supernatant P24,CCR5-tropic HIV-1 BaL; 4 hrs,192 ng/mL
same,viral load,CCR5-tropic HIV-1 BaL; 4 hrs,1.26×10^10 copies/ml
same,inhibition of ligand binding (in words),CCR3,weakly inhibited
same,inhibition of ligand binding (in words),CCR1,did not inhibit
same,"MCP-1, Baseline Mean",MCP-1; 25 mg cohort,20.0 pg/mL
same,"MCP-1, Baseline Median",MCP-1; 25 mg cohort,16.0 pg/mL
same,"MCP-1, Change from Baseline to Day 10, Median",MCP-1; 25 mg once daily,+25.0 pg/mL
same,"MCP-1, Day 10 Mean",MCP-1; 25 mg once daily,75.3 pg/mL
same,"MCP-1, Day 10 Median",MCP-1; 25 mg once daily,39.0 pg/mL
same,"MCP-1, Baseline Mean",MCP-1; 50 mg cohort,12.6 pg/mL
same,"MCP-1, Baseline Median",MCP-1; 50 mg cohort,6.0 pg/mL
same,"MCP-1, Change from Baseline to Day 10, Median",MCP-1; 50 mg once daily,+56.0 pg/mL
same,"MCP-1, Day 10 Mean",MCP-1; 50 mg once daily,101.3 pg/mL
same,"MCP-1, Day 10 Median",MCP-1; 50 mg once daily,65.0 pg/mL
same,"MCP-1, Baseline Mean",MCP-1; 75 mg cohort,26.6 pg/mL
same,"MCP-1, Baseline Median",MCP-1; 75 mg cohort,8.0 pg/mL
same,"MCP-1, Change from Baseline to Day 10, Median",MCP-1; 75 mg once daily,+36.0 pg/mL
same,"MCP-1, Day 10 Mean",MCP-1; 75 mg once daily,59.1 pg/mL
same,"MCP-1, Day 10 Median",MCP-1; 75 mg once daily,43.5 pg/mL
same,"MCP-1, Baseline Mean",MCP-1; 150 mg cohort,31.6 pg/mL
same,"MCP-1, Baseline Median",MCP-1; 150 mg cohort,19.5 pg/mL
same,"MCP-1, Change from Baseline to Day 10, Median",MCP-1; 150 mg once daily,+322.0 pg/mL
same,"MCP-1, Day 10 Mean",MCP-1; 150 mg once daily,372.0 pg/mL
same,"MCP-1, Day 10 Median",MCP-1; 150 mg once daily,368.0 pg/mL
same,effect on hs-CRP or IL-6 levels (in words),MCP-1; 10-day study,no effect
same,treatment-emergent AE: diarrhea,[1],16.7%
same,treatment-emergent AE: fatigue,[1],11.0%
same,treatment-emergent AE: headache,[1],14.8%
same,treatment-emergent AE: nausea,[1],18.5%
same,subjects with mild AEs,[1]; [2],80%
same,subjects with moderate AEs,[1]; [2],17%
same,tolerability (in words),[1]; doses between 25 mg and 150 mg,generally well tolerated
same,MPI (%),HIV-2 clinical isolates; [3],94%
same,MPI (%),HIV-2 clinical isolates; [4],93%
same,MPI (%),HIV-2 clinical isolates; [5],4%
same,MPI (%),HIV-2 clinical isolates; [6],94%
same,MPI (%),HIV-2 clinical isolates; [7],33%
same,MPI (%),HIV-2 clinical isolates; [8],98%
same,EC50,HIV-2 clinical isolates; [3],0.03 nM
same,EC50,HIV-2 clinical isolates; [4],0.45 nM
same,EC50,HIV-2 clinical isolates; [5],> 1000 nM
same,EC50,HIV-2 clinical isolates; [6],0.33 nM
same,EC50,HIV-2 clinical isolates; [7],> 1000 nM
same,EC50,HIV-2 clinical isolates; [8],0.98 nM
